According to ChEMBL document CHEMBL1145929, “Syntheses and binding studies of new [(aryl)(aryloxy)methyl]piperidine derivatives and related compounds as potential antidepressant drugs with high affinity for serotonin (5-HT) and norepinephrine (NE) transporters” (J Med Chem, 2003):

Assays:
[1] = biological target: T1, 5-hydroxytryptamine receptor 1A (Rattus norvegicus, UniProt P19327); test: Displacement of [3H]8-OH-DPAT from 5-hydroxytryptamine 1A receptor of rat hippocampus mambranes; format: tissue-based
T1 sequence (P19327 whole entry): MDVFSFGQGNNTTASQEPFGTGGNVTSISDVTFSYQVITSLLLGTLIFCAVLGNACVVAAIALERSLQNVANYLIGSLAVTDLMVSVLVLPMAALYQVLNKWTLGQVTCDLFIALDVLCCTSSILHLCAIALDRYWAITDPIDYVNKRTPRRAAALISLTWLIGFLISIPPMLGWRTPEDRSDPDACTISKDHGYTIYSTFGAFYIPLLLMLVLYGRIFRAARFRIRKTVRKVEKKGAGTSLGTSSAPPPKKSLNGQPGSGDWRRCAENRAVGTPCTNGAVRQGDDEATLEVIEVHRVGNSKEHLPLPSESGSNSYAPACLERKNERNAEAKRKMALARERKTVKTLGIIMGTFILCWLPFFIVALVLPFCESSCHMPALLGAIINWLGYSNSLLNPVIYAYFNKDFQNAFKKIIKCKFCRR

[2] = biological target: T2, 5-hydroxytryptamine receptor 2A (Rattus norvegicus, UniProt P14842); test: Binding affinity against 5-hydroxytryptamine 2A receptor by displacement of [3H]ketanserin from rat prefrontal cerebral cortex mambranes; format: tissue-based, Frontal cortex
[3] = biological target: T3, Sodium-dependent serotonin transporter (Rattus norvegicus, UniProt P31652); test: Binding affinity against serotonin transporter (SERT) by displacement of [3H]paroxetine in male wistar rats
[4] = biological target: T1, 5-hydroxytryptamine receptor 1A; test: Binding affinity against 5-hydroxytryptamine 1A receptor (5-HT1A) by displacement of [3H]8-OH-DPAT from rat hippocampus membranes; format: cell membranes, Membrane
[5] = biological target: T3, Sodium-dependent serotonin transporter; test: Binding affinity against serotonin transporter (SERT) by displacement of [3H]paroxetine in male wistar rat
[6] = biological target: T3, Sodium-dependent serotonin transporter; test: Binding affinity to the serotonin transporter (SERT) measured by displacement of [3H]paroxetine in male wistar rats
[7] = biological target: T2, 5-hydroxytryptamine receptor 2A; test: Binding affinity against 5-hydroxytryptamine 2A receptor by displacement of [3H]-ketanserin from rat prefrontal cerebral cortex mambranes; format: tissue-based, Frontal cortex
[8] = biological target: Norepinephrine transporter (Rattus norvegicus, UniProt Q9WTR4); test: Binding affinity against norepinephrine transporter (NET) by displacement of [3H]nisoxetine in male wistar rats
[9] = biological target: Sodium-dependent dopamine transporter (Rattus norvegicus, UniProt P23977); test: Binding affinity against dopamine transporter (DAT) by displacement of [3H]WIN-35428 in male wistar rats
Chain of Sodium-dependent dopamine transporter (P23977 whole entry): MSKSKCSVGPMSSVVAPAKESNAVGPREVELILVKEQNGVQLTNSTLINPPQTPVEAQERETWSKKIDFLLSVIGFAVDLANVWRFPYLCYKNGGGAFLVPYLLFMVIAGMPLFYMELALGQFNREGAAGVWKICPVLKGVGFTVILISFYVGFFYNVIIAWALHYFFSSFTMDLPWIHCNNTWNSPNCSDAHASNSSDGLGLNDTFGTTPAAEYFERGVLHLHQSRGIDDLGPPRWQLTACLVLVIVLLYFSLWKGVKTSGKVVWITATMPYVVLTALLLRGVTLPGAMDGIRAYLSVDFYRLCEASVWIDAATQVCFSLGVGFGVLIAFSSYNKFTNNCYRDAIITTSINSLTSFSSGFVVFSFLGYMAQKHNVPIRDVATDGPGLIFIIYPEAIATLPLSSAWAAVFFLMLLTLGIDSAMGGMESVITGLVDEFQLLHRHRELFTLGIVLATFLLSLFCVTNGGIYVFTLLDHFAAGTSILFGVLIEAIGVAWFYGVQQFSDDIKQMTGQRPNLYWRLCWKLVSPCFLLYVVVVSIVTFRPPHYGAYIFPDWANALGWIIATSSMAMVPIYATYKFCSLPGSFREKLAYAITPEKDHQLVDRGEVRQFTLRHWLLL

Chain of Norepinephrine transporter (Q9WTR4 whole entry): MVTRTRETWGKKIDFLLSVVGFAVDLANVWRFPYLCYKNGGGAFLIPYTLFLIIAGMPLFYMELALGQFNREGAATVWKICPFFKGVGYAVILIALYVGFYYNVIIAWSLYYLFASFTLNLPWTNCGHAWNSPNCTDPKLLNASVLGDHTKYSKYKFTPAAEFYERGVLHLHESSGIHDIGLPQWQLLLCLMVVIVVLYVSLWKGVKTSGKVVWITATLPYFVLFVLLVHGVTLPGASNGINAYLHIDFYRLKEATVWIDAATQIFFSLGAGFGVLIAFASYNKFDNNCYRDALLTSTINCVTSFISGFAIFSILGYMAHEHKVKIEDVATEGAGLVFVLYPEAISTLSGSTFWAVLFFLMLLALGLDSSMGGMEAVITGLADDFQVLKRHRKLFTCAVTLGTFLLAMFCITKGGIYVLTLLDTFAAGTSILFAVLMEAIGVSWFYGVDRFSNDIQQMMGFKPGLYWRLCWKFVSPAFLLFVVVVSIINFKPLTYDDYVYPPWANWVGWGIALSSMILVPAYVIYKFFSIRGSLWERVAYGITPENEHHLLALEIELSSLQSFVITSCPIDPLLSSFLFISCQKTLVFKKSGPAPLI
T3 sequence (P31652 whole entry): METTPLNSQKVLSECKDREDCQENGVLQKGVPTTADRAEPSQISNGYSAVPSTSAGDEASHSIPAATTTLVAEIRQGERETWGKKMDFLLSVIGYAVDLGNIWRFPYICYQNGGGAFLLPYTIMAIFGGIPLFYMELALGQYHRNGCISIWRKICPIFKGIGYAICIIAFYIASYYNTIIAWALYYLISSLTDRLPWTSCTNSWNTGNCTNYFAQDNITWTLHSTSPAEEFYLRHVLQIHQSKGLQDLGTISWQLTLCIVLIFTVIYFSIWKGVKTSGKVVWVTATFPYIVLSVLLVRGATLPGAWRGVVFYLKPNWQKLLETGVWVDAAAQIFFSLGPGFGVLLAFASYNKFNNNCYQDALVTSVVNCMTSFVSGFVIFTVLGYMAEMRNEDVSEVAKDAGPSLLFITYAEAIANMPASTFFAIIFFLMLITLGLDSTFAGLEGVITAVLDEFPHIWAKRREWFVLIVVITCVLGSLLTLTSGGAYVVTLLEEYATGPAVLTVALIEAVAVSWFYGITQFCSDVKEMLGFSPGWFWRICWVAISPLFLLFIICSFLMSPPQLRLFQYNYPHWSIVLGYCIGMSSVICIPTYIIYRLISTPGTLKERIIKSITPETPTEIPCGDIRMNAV
T2 sequence (P14842 whole entry): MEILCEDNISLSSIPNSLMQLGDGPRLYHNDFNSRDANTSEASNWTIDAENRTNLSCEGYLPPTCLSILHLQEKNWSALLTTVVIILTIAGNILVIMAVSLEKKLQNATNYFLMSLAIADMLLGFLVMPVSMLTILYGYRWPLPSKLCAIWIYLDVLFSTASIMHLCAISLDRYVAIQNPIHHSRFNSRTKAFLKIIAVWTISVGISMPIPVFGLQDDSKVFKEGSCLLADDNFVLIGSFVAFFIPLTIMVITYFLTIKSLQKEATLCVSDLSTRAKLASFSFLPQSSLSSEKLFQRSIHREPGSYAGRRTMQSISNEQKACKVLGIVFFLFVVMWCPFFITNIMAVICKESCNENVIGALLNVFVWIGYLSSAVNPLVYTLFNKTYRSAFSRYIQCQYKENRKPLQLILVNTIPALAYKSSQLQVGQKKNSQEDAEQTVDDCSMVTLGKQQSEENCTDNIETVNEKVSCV

Row | SMILES | Ki [2] [nM] | IC50 [3] [nM] | IC50 [4] [nM] | Ki [6] [nM] | IC50 [7] [nM] | IC50 [9] [nM] | further results
1 | FC(F)(F)c1ccccc1OC(CCN1CCN(c2nsc3ccccc23)CC1)c1ccccc1 (stereo unspecified) | 24.1 | > 1000 | – | – | – | – | Ki [1]: 446 nM
2 | Nc1ccc(OC(CCC(=O)C2CCN(c3ccc(F)cc3)CC2)c2ccc(F)cc2)cc1 (stereo unspecified) | 14.4 | > 1000 | > 1000 | – | – | – | –
3 | FC(F)(F)c1ccc(OC(CCN2CCN(c3nsc4ccccc34)CC2)c2ccccc2)cc1 (stereo unspecified) | 40.2 | > 1000 | – | – | – | – | Ki [1]: 33.7 nM
4 | c1ccc(-c2ccccc2OC(c2ccccc2)C2CCNCC2)cc1 (stereo unspecified) | 149 | > 1000 | > 1000 | – | – | – | –
5 | Fc1ccccc1OC(CCN1CCN(c2nsc3ccccc23)CC1)c1ccccc1 (stereo unspecified) | 5.3 | – | – | – | – | – | IC50 [5]: > 1000 nM; Ki [1]: 70.2 nM
6 | O=C(CCC(Oc1ccc([N+](=O)[O-])cc1)c1ccccc1)C1CCN(c2ccc(F)cc2)CC1 (stereo unspecified) | 23 | > 1000 | > 1000 | – | – | – | –
7 | O=[N+]([O-])c1ccc(OC(CCN2CCN(c3n[o+][c-]4ccccc34)CC2)c2ccccc2)cc1 (stereo unspecified) | 53.3 | > 1000 | – | – | – | – | Ki [1]: 254 nM
8 | COc1ccc(OC(CCN2CCN(c3noc4ccccc34)CC2)c2ccccc2)cc1 (stereo unspecified) | 18.9 | > 1000 | – | – | – | – | Ki [1]: 182 nM
9 | O=C(CCC(Oc1ccc([N+](=O)[O-])cc1)c1ccc(F)cc1)C1CCN(c2ccc(F)cc2)CC1 (stereo unspecified) | 55.1 | > 1000 | > 1000 | – | – | – | –
10 | COc1ccc(OC(CCN2CCN(c3nsc4ccccc34)CC2)c2ccccc2)cc1 (stereo unspecified) | 10.2 | > 1000 | – | – | – | – | Ki [1]: 69.7 nM
11 | Fc1ccc(OC(CC2CCNCC2)c2ccccc2)cc1 (stereo unspecified) | 140 | – | > 1000 | 78.3 | – | – | –
12 | FC(F)(F)c1cccc(OC(CCN2CCN(c3nsc4ccccc34)CC2)c2ccccc2)c1 (stereo unspecified) | 28.2 | > 1000 | > 1000 | – | – | – | –
13 | Fc1ccc(OC(CC2CCNCC2)c2ccc(F)cc2)cc1 (stereo unspecified) | 194 | – | > 1000 | 67.7 | – | – | –
14 | O=C(CCC(Oc1ccccc1F)c1ccccc1)C1CCN(c2ccc(F)cc2)CC1 (stereo unspecified) | 8 | > 1000 | – | – | – | – | Ki [1]: 37.8 nM
15 | Fc1ccc(OC(c2cccc(F)c2)C2CCNCC2)cc1 (stereo unspecified) | 360 | – | > 1000 | 5.8 | – | – | –
16 | Fc1ccccc1OC(CCN1CCN(c2noc3ccccc23)CC1)c1ccccc1 (stereo unspecified) | 17.2 | > 1000 | – | – | – | – | Ki [1]: 118 nM
17 | CN1CCC(C(Oc2ccc(F)cc2)c2ccccc2)CC1 (stereo unspecified) | 44.4 | > 1000 | > 1000 | – | – | – | –
18 | COc1ccc(OC(CCC(=O)C2CCN(c3ccc(F)cc3)CC2)c2ccccc2)cc1 (stereo unspecified) | 53.8 | > 1000 | – | – | – | – | Ki [1]: 93.6 nM
19 | Nc1ccc(OC(CCC(=O)C2CCN(c3ccc(F)cc3)CC2)c2ccccc2)cc1 (stereo unspecified) | 16.4 | > 1000 | – | – | – | – | Ki [1]: 108 nM
20 | Fc1ccccc1OC(c1ccccc1)C1CCNCC1 (single isomer, unassigned; (+)) | – | – | > 1000 | 28.5 | > 1000 | – | Ki [8]: 41.4 nM; Ki [9]: 520 nM
21 | O=[N+]([O-])c1ccc(OC(c2ccccc2)C2CCNCC2)cc1 (single isomer, unassigned; (+)) | – | – | > 1000 | – | > 1000 | > 1000 | IC50 [8]: > 1000 nM
22 | c1ccc(C(Oc2cccc3ccccc23)C2CCNCC2)cc1 (single isomer, unassigned; (+)) | – | – | > 1000 | 20.1 | > 1000 | > 1000 | Ki [8]: 417 nM

Row | SMILES | Ki [2] [nM] | IC50 [3] [nM] | IC50 [4] [nM] | Ki [6] [nM] | IC50 [7] [nM] | IC50 [9] [nM] | further results
23 | Fc1cccc(OC(c2cccc(F)c2)C2CCNCC2)c1 (single isomer, unassigned; (+)) | – | – | > 1000 | 2.8 | > 1000 | > 500 | –
24 | N#Cc1cccc(OC(c2ccccc2)C2CCNCC2)c1 (single isomer, unassigned; (+)) | – | – | > 1000 | 1.4 | > 1000 | > 1000 | –
25 | Fc1cccc(C(Oc2ccccc2F)C2CCNCC2)c1 (single isomer, unassigned; (+)) | – | – | > 1000 | – | > 1000 | – | Ki [8]: 48.1 nM
26 | Brc1ccc(OC(c2ccccc2)C2CCNCC2)cc1 (single isomer, unassigned; (+)) | – | – | > 1000 | 23.2 | > 1000 | > 1000 | IC50 [8]: > 1000 nM
27 | Fc1ccccc1OC(c1ccccc1)C1CCNCC1 (single isomer, unassigned; (-)) | – | – | > 1000 | – | > 1000 | > 1000 | Ki [8]: 22.5 nM
28 | O=[N+]([O-])c1ccc(OC(c2ccccc2)C2CCNCC2)cc1 (single isomer, unassigned; (-)) | – | – | > 1000 | 0.6 | > 1000 | > 1000 | IC50 [8]: > 500 nM
29 | N#Cc1cccc(OC(c2ccccc2)C2CCNCC2)c1 (single isomer, unassigned; (-)) | – | – | > 1000 | 1.4 | > 1000 | – | Ki [9]: 110 nM
30 | Fc1cccc(C(Oc2ccccc2F)C2CCNCC2)c1 (single isomer, unassigned; (-)) | – | – | > 1000 | 4.3 | > 1000 | > 500 | Ki [8]: 19.1 nM
31 | FC(F)(F)c1ccc(OC(c2ccccc2)C2CCNCC2)cc1 (single isomer, unassigned; (-)) | – | – | – | – | – | > 1000 | IC50 [8]: > 1000 nM
32 | Brc1ccc(OC(c2ccccc2)C2CCNCC2)cc1 (single isomer, unassigned; (-)) | – | – | > 1000 | 5.7 | > 1000 | > 1000 | IC50 [8]: > 500 nM
33 | Fc1cc(F)cc(OC(c2ccccc2)C2CCNCC2)c1 (stereo in doubt; (+)-15aj) | – | – | > 1000 | 7.1 | > 1000 | > 500 | –
34 | Fc1cccc(OC(c2ccccc2)C2CCNCC2)c1 (stereo in doubt; (+)-15j) | – | – | > 1000 | – | > 1000 | – | Ki [8]: 98.3 nM; Ki [9]: 163 nM
35 | Clc1cccc(OC(c2ccccc2)C2CCNCC2)c1 (stereo in doubt; (+)-15l) | – | – | > 1000 | – | > 1000 | > 1000 | –
36 | Fc1ccc(OC(c2ccccc2)C2CCNCC2)cc1 (stereo in doubt; (+)-15p) | – | – | > 1000 | 0.4 | > 1000 | – | Ki [9]: 821 nM
37 | FC(F)(F)c1ccc(OC(c2ccccc2)C2CCNCC2)cc1 (stereo in doubt; (+)-15q) | – | – | – | – | – | > 1000 | IC50 [8]: > 1000 nM
38 | Fc1cc(F)cc(OC(c2ccccc2)C2CCNCC2)c1 (stereo in doubt; (-)-15aj) | – | – | > 1000 | – | > 1000 | > 1000 | –
39 | c1ccc(C(Oc2cccc3ccccc23)C2CCNCC2)cc1 (stereo in doubt; (-)-15au) | – | – | > 1000 | 28.1 | > 1000 | > 1000 | IC50 [8]: > 1000 nM
40 | Fc1cccc(OC(c2ccccc2)C2CCNCC2)c1 (stereo in doubt; (-)-15j) | – | – | > 1000 | – | > 1000 | – | Ki [8]: 13.5 nM
41 | Clc1cccc(OC(c2ccccc2)C2CCNCC2)c1 (stereo in doubt; (-)-15l) | – | – | > 1000 | – | > 1000 | > 500 | –
42 | CCCN(CCC)C1CCc2cccc(O)c2C1 (stereo unspecified) [8-OH-DPAT] | – | > 1000 | – | – | > 1000 | > 1000 | IC50 [8]: > 1000 nM
43 | OC1(c2ccc(Cl)cc2)c2ccccc2C2=NCCN21 (stereo unspecified) [MAZINDOL] | – | – | > 1000 | 248 | > 1000 | – | Ki [8]: 0.8 nM; Ki [9]: 44.3 nM
44 | CN1CCN2c3ncccc3Cc3ccccc3C2C1 (stereo unspecified) [MIRTAZAPINE] | – | > 1000 | > 1000 | – | – | > 1000 | IC50 [8]: > 1000 nM
